Laboratory results: BigSolDB 2.1

O=c1[nH]cc(F)c(=O)[nH]1
solubility (mole fraction)
Details | 293.15 K | 298.15 K | 303.15 K | 308.15 K | 313.15 K | 318.15 K | 323.15 K
in ethanol | 0.00246 | 0.00277 | 0.00307 | 0.0034 | 0.00382 | 0.00411 | 0.00455
in water | 0.00155 | 0.00176 | 0.00195 | 0.00214 | 0.00241 | 0.00278 | 0.00312
